The supplement of paper PMC10307832

Tests used:
Assay in all cases: relative viability (nuclei count vs DMSO), 5 days (fraction); higher = more cells survive
[1] = tested on: LXF-289
Outline: (§1)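 Dosing by pin tool came one day after lung cancer cell lines were seeded in 1536-well plates, using either one drug or a fixed anchor-drug dose plus five library-drug doses (not always all listed) in √10 steps. After 5 days, nuclei were counted on 4× images. Relative viability is treated-well nuclei count divided by vehicle-well nuclei count, and values are medians of duplicate plates.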

[2] = tested on: LU99A
Outline: as §1

[3] = tested on: RERF-LC-KJ
Outline: as §1

[4] = tested on: HCC-827
Outline: as §1

[5] = tested on: NCI-H1993
Outline: as §1

[6] = tested on: 201T
Outline: as §1

[7] = tested on: NCI-H1944
Outline: as §1

[8] = tested on: BEN
Outline: as §1

[9] = tested on: LC-2-ad
Outline: as §1

[10] = tested on: NCI-H596
Outline: as §1

[11] = tested on: HCC-78
Outline: as §1

[12] = tested on: NCI-H1755
Outline: as §1

[13] = tested on: HCC-15
Outline: as §1

[14] = tested on: HARA
Outline: as §1

[15] = tested on: HCC-366
Outline: as §1

[16] = tested on: NCI-H1734
Outline: as §1

[17] = tested on: NCI-H3122
Outline: as §1

[18] = tested on: NCI-H1975
Outline: as §1

[19] = tested on: EKVX
Outline: as §1

O=c1[nH]c2ccccc2n1C1CCN(CCCC(c2ccc(F)cc2)c2ccc(F)cc2)CC1 [Pimozide] + NC(=O)Nc1cc(-c2cccc(F)c2)sc1C(=O)N[C@H]1CCCNC1 [AZD7762] (partner 0.2 µM)
relative viability ([1]; first compound 0.08 µM): 1.07
relative viability ([1]; first compound 0.253 µM): 1.1
relative viability ([1]; first compound 0.8 µM): 1.08
relative viability ([1]; first compound 2.53 µM): 1.13
relative viability ([1]; first compound 8 µM): 0.962
relative viability ([2]; first compound 0.08 µM): 0.399
relative viability ([2]; first compound 0.8 µM): 0.333
relative viability ([2]; first compound 2.53 µM): 0.31
relative viability ([2]; first compound 8 µM): 0.398
relative viability ([3]; first compound 0.08 µM): 0.91
relative viability ([3]; first compound 0.253 µM): 0.866
relative viability ([3]; first compound 0.8 µM): 0.806
relative viability ([3]; first compound 2.53 µM): 0.757
relative viability ([3]; first compound 8 µM): 0.81
relative viability ([4]; first compound 0.253 µM): 0.2
relative viability ([4]; first compound 0.8 µM): 0.211
relative viability ([4]; first compound 2.53 µM): 0.236
relative viability ([4]; first compound 8 µM): 0.28
relative viability ([5]; first compound 0.08 µM): 0.701
relative viability ([5]; first compound 0.253 µM): 0.752
relative viability ([5]; first compound 0.8 µM): 0.544
relative viability ([5]; first compound 2.53 µM): 0.675
relative viability ([5]; first compound 8 µM): 0.729
relative viability ([6]; first compound 0.08 µM): 0.602
relative viability ([6]; first compound 0.253 µM): 0.615
relative viability ([6]; first compound 0.8 µM): 0.541
relative viability ([6]; first compound 2.53 µM): 0.537
relative viability ([6]; first compound 8 µM): 0.652
relative viability ([7]; first compound 0.08 µM): 0.659
relative viability ([7]; first compound 2.53 µM): 0.443
relative viability ([7]; first compound 8 µM): 0.524
relative viability ([8]; first compound 0.08 µM): 0.762
relative viability ([8]; first compound 0.253 µM): 0.753
relative viability ([8]; first compound 0.8 µM): 0.618
relative viability ([8]; first compound 2.53 µM): 0.713
relative viability ([8]; first compound 8 µM): 0.886
relative viability ([9]; first compound 0.08 µM): 0.78
relative viability ([9]; first compound 0.253 µM): 0.794
relative viability ([9]; first compound 0.8 µM): 0.736
relative viability ([9]; first compound 2.53 µM): 0.812
relative viability ([9]; first compound 8 µM): 0.798
relative viability ([10]; first compound 0.08 µM): 1.17
relative viability ([10]; first compound 0.253 µM): 1.31
relative viability ([10]; first compound 0.8 µM): 1.31
relative viability ([10]; first compound 2.53 µM): 1.19
relative viability ([10]; first compound 8 µM): 1.04
relative viability ([11]; first compound 0.08 µM): 0.547
relative viability ([11]; first compound 0.8 µM): 0.607
relative viability ([11]; first compound 2.53 µM): 0.55
relative viability ([11]; first compound 8 µM): 0.6
relative viability ([12]; first compound 0.08 µM): 0.727
relative viability ([12]; first compound 0.253 µM): 0.42
relative viability ([12]; first compound 0.8 µM): 0.47
relative viability ([12]; first compound 2.53 µM): 0.533
relative viability ([12]; first compound 8 µM): 0.46
relative viability ([13]; first compound 0.08 µM): 1.36
relative viability ([13]; first compound 0.253 µM): 0.545
relative viability ([13]; first compound 2.53 µM): 1.2
relative viability ([13]; first compound 8 µM): 1.16
relative viability ([14]; first compound 0.08 µM): 0.21
relative viability ([14]; first compound 0.253 µM): 0.48
relative viability ([14]; first compound 0.8 µM): 0.318
relative viability ([14]; first compound 2.53 µM): 0.197
relative viability ([14]; first compound 8 µM): 0.37
relative viability ([15]; first compound 0.08 µM): 0.263
relative viability ([15]; first compound 0.253 µM): 0.258
relative viability ([15]; first compound 0.8 µM): 0.211
relative viability ([15]; first compound 2.53 µM): 0.246
relative viability ([15]; first compound 8 µM): 0.253
relative viability ([16]; first compound 0.08 µM): 0.573
relative viability ([16]; first compound 0.253 µM): 0.558
relative viability ([16]; first compound 0.8 µM): 0.487
relative viability ([16]; first compound 2.53 µM): 0.511
relative viability ([16]; first compound 8 µM): 0.485
relative viability ([17]; first compound 0.08 µM): 0.977
relative viability ([17]; first compound 0.253 µM): 0.882
relative viability ([17]; first compound 0.8 µM): 0.963
relative viability ([17]; first compound 2.53 µM): 1.05
relative viability ([17]; first compound 8 µM): 0.825
relative viability ([18]; first compound 0.08 µM): 0.691
relative viability ([18]; first compound 0.253 µM): 0.635
relative viability ([18]; first compound 0.8 µM): 0.684
relative viability ([18]; first compound 2.53 µM): 0.649
relative viability ([18]; first compound 8 µM): 0.766
relative viability ([19]; first compound 0.253 µM): 0.711
relative viability ([19]; first compound 0.8 µM): 0.618
relative viability ([19]; first compound 2.53 µM): 0.749
relative viability ([19]; first compound 8 µM): 0.592
